Experimental data reported in PubChem BioAssay AID256 (DTP/NCI, 2004).
Where “and” joins values, the source holds several entries; their conditions need not be identical. Equal values may be shown once. Toxic doses and inconclusive results are not listed. The calls were made as follows: active = survival T/C of 150% or more; inactive = T/C below 125% in these data.

System: CD2F1 mice, L1210 leukemia ip, survival T/C
Assay: NCI In Vivo Anticancer Drug Screen. Data for tumor model L1210 Leukemia (intraperitoneal) in CD2F1 (CDF1) mice
Conditions: higher = longer survival
Method in brief: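 Activity against a transplanted murine tumor was judged by comparing the compound group with a vehicle group. The outcome in the treated animals was divided by that in the controls.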

[1] = endpoint: mean survival time, dose: 100.0 mg/kg/injection, schedule: Q01DX009 (ip), vehicle: saline with Tween-80
[2] = endpoint: mean survival time, dose: 200.0 mg/kg/injection, schedule: Q01DX009 (ip), vehicle: saline with Tween-80
[3] = endpoint: mean survival time, dose: 400.0 mg/kg/injection, schedule: Q01DX009 (ip), vehicle: saline with Tween-80
[4] = endpoint: mean survival time, dose: 100.0 mg/kg/injection, schedule: Q04DX002 (ip), vehicle: saline with Tween-80
[5] = endpoint: mean survival time, dose: 200.0 mg/kg/injection, schedule: Q04DX002 (ip), vehicle: saline with Tween-80
[6] = endpoint: mean survival time, dose: 400.0 mg/kg/injection, schedule: Q04DX002 (ip), vehicle: saline with Tween-80
[7] = endpoint: mean survival time, dose: 50.0 mg/kg/injection, schedule: Q01DX009 (ip), vehicle: saline with Tween-80
[8] = endpoint: mean survival time, dose: 100.0 mg/kg/injection, schedule: Q04DX003 (ip), vehicle: saline with Tween-80
[9] = endpoint: mean survival time, dose: 200.0 mg/kg/injection, schedule: Q04DX003 (ip), vehicle: saline with Tween-80
[10] = endpoint: mean survival time, dose: 400.0 mg/kg/injection, schedule: Q04DX003 (ip), vehicle: saline with Tween-80
[11] = endpoint: mean survival time, dose: 100.0 mg/kg/injection, schedule: Q01DX001 (ip), vehicle: saline with Tween-80
[12] = endpoint: mean survival time, dose: 200.0 mg/kg/injection, schedule: Q01DX001 (ip), vehicle: saline with Tween-80
[13] = endpoint: mean survival time, dose: 400.0 mg/kg/injection, schedule: Q01DX001 (ip), vehicle: saline with Tween-80
[14] = endpoint: mean survival time, dose: 50.0 mg/kg/injection, schedule: Q04DX002 (ip), vehicle: saline with Tween-80

Measured: T/C

COc1ccc(CCNC(=O)Cc2ccc(OC)c(OC)c2)cc1OC
inactive: endpoint: mean survival time, dose: 50.0 mg/kg/injection, schedule: Q04DX003 (ip), vehicle: saline 93 % of control | endpoint: mean survival time, dose: 100.0 mg/kg/injection, schedule: Q04DX003 (ip), vehicle: saline 96 % of control | endpoint: mean survival time, dose: 200.0 mg/kg/injection, schedule: Q04DX003 (ip), vehicle: saline 96 % of control

O=NN(CC(=O)N/N=C\c1ccc(Cl)cc1)CC(=O)N/N=C/c1ccc(Cl)cc1
inactive: [1] 91 % of control | [2] 94 % of control | [3] 96 % of control

Cc1cccc(OP(N)(=O)Oc2cccc(C)c2)c1
inactive: [4] 96 % of control | [5] 96 % of control | [6] 96 % of control

COc1ccc2c(O)c(Cc3ccccc3)c(=O)oc2c1
inactive: [7] 112 % of control | [1] 103 % of control | [2] 103 % of control

C=COC(=O)C(Cc1ccccc1)NC(=O)OCc1ccccc1 (stereo not drawn)
inactive: endpoint: median survival time, dose: 25.0 mg/kg/injection, schedule: Q01DX009 (ip), vehicle: saline with Tween-80 96 % of control | endpoint: median survival time, dose: 50.0 mg/kg/injection, schedule: Q01DX009 (ip), vehicle: saline with Tween-80 96 % of control | endpoint: median survival time, dose: 100.0 mg/kg/injection, schedule: Q01DX009 (ip), vehicle: saline with Tween-80 93 % of control | endpoint: median survival time, dose: 200.0 mg/kg/injection, schedule: Q01DX009 (ip), vehicle: saline with Tween-80 93 % of control | endpoint: median survival time, dose: 400.0 mg/kg/injection, schedule: Q01DX009 (ip), vehicle: saline with Tween-80 101 % of control

OCCN=Cc1ccc(OCc2ccccc2)c(OCc2ccccc2)c1
inactive: endpoint: median survival time, dose: 50.0 mg/kg/injection, schedule: Q04DX002 (ip), vehicle: saline with Tween-80 100 % of control | endpoint: median survival time, dose: 100.0 mg/kg/injection, schedule: Q04DX002 (ip), vehicle: saline with Tween-80 111 % of control | endpoint: median survival time, dose: 200.0 mg/kg/injection, schedule: Q04DX002 (ip), vehicle: saline with Tween-80 88 % of control | endpoint: median survival time, dose: 400.0 mg/kg/injection, schedule: Q04DX002 (ip), vehicle: saline with Tween-80 100 % of control

CCCCCCCC/C=C\CCCCCCCC(=O)OCCCCCCCC
inactive: [4] 95 % of control | [5] 95 % of control | [6] 102 % of control

O=C1c2ccccc2C(=O)N1c1ccc(Cl)cc1
inactive: endpoint: mean survival time, dose: 100.0 mg/kg/injection, schedule: Q01DX001 (ip), vehicle: Klucel (hydroxypropylcellulose) (HPC) 92 % of control | endpoint: mean survival time, dose: 200.0 mg/kg/injection, schedule: Q01DX001 (ip), vehicle: Klucel (hydroxypropylcellulose) (HPC) 96 % of control | endpoint: mean survival time, dose: 400.0 mg/kg/injection, schedule: Q01DX001 (ip), vehicle: Klucel (hydroxypropylcellulose) (HPC) 107 % of control

COC(=O)c1ccc(O)c(O)c1
inactive: [1] 102 % of control | [8] 99 % of control | [2] 101 % of control | [9] 102 % of control | [3] 90 % of control | [10] 91 % of control

Cc1ccc([N+](=O)[O-])cc1NC(=O)Nc1onc(C)c1C
inactive: endpoint: mean survival time, dose: 12.5 mg/kg/injection, schedule: Q01DX009 (ip), vehicle: Klucel (hydroxypropylcellulose) (HPC) 89 % of control | endpoint: mean survival time, dose: 25.0 mg/kg/injection, schedule: Q01DX009 (ip), vehicle: Klucel (hydroxypropylcellulose) (HPC) 95 % of control

CC1(C)N=C(N)N=C(N)N1c1cccc(OCCCC#N)c1
inactive: endpoint: mean survival time, dose: 25.0 mg/kg/injection, schedule: Q01DX001 (ip), vehicle: saline 88 % of control | endpoint: mean survival time, dose: 50.0 mg/kg/injection, schedule: Q01DX001 (ip), vehicle: saline 106 % of control | endpoint: mean survival time, dose: 100.0 mg/kg/injection, schedule: Q01DX001 (ip), vehicle: saline 101 % of control

CC(C)(C)C#C/C(=N\Nc1ccc([N+](=O)[O-])cc1[N+](=O)[O-])c1ccccc1
inactive: [11] 94 % of control | [12] 89 % of control | [13] 86 % of control

CCSC1=NCCCS1
inactive: endpoint: mean survival time, dose: 75.0 mg/kg/injection, schedule: Q01DX001 (ip), vehicle: other 97 % of control | endpoint: mean survival time, dose: 150.0 mg/kg/injection, schedule: Q01DX001 (ip), vehicle: other 98 % of control | endpoint: mean survival time, dose: 300.0 mg/kg/injection, schedule: Q01DX001 (ip), vehicle: other 95 % of control

CN1COc2c(Cl)cc(Cl)cc2C1
inactive: endpoint: mean survival time, dose: 25.0 mg/kg/injection, schedule: Q01DX009 (ip), vehicle: saline 104 % of control | endpoint: mean survival time, dose: 50.0 mg/kg/injection, schedule: Q01DX009 (ip), vehicle: saline 104 % of control | endpoint: mean survival time, dose: 100.0 mg/kg/injection, schedule: Q01DX009 (ip), vehicle: saline 115 % of control | [8] 98 % of control

[Cl][Pt+2][Cl].[NH-]C(Cc1ccc(O)cc1)C(=O)O.[NH-]C(Cc1ccc(O)cc1)C(=O)O (stereo not drawn)
inactive: endpoint: mean survival time, dose: 12.5 mg/kg/injection, schedule: Q04DX003 (ip), vehicle: saline with Tween-80 95 % of control | endpoint: mean survival time, dose: 50.0 mg/kg/injection, schedule: Q04DX003 (ip), vehicle: saline with Tween-80 97 % of control | [8] 95 % of control

O=N[O-].O=N[O-].[Co].[NH-]CC[NH-].[NH-]CC[NH-]
inactive: [14] 93 % of control | endpoint: mean survival time, dose: 75.0 mg/kg/injection, schedule: Q01DX001 (ip), vehicle: saline 103 % of control | [4] 100 % of control | endpoint: mean survival time, dose: 150.0 mg/kg/injection, schedule: Q01DX001 (ip), vehicle: saline 113 % of control | [5] 96 % of control

CC(=O)Nc1ccc(/C=C(\C#N)c2ccc(C)cc2)cc1
inactive: [1] 89 % of control | [2] 91 % of control | [3] 100 % of control

CC(C)(C)CC(C)(C)c1ccc(OCCOc2ccc(C(=O)Nc3ccc([N+](=O)[O-])cc3)cc2)cc1
inactive: endpoint: mean survival time, dose: 100.0 mg/kg/injection, schedule: Q01DX009 (ip), vehicle: Klucel (hydroxypropylcellulose) (HPC) 87 % of control | endpoint: mean survival time, dose: 100.0 mg/kg/injection, schedule: Q04DX003 (ip), vehicle: Klucel (hydroxypropylcellulose) (HPC) 96 % of control | endpoint: mean survival time, dose: 200.0 mg/kg/injection, schedule: Q01DX009 (ip), vehicle: Klucel (hydroxypropylcellulose) (HPC) 105 % of control | endpoint: mean survival time, dose: 200.0 mg/kg/injection, schedule: Q04DX003 (ip), vehicle: Klucel (hydroxypropylcellulose) (HPC) 98 % of control | endpoint: mean survival time, dose: 400.0 mg/kg/injection, schedule: Q04DX003 (ip), vehicle: Klucel (hydroxypropylcellulose) (HPC) 94 % of control

CC(=O)N(C)c1ccc(S(=O)(=O)Cl)cc1
inactive: [11] 100 % of control | [12] 105 % of control | [13] 93 % of control

Nc1nc(N)c2c(n1)NCN(CCc1cccc(Cl)c1)C2
inactive: endpoint: mean survival time, dose: 0.75 mg/kg/injection, schedule: Q01DX009 (ip), vehicle: distilled water + Tween-80 96 % of control | endpoint: mean survival time, dose: 1.5 mg/kg/injection, schedule: Q01DX009 (ip), vehicle: distilled water + Tween-80 100 % of control | endpoint: mean survival time, dose: 3.0 mg/kg/injection, schedule: Q01DX009 (ip), vehicle: distilled water + Tween-80 98 % of control | endpoint: mean survival time, dose: 6.0 mg/kg/injection, schedule: Q01DX009 (ip), vehicle: distilled water + Tween-80 96 % of control | endpoint: mean survival time, dose: 12.0 mg/kg/injection, schedule: Q01DX009 (ip), vehicle: distilled water + Tween-80 94 % of control | endpoint: mean survival time, dose: 24.0 mg/kg/injection, schedule: Q01DX009 (ip), vehicle: distilled water + Tween-80 94 % of control

CCCC1=CC(C)(C)CC(C)=C1 (tested in a mixture with another compound)
inactive: [7] 98 % of control | [1] 96 % of control | [8] 102 % of control | [2] 100 % of control | [9] 100 % of control

CCOC(=O)C(=NCc1ccc2c(c1)OCO2)NO
inactive: [8] 96 % of control | [9] 100 % of control | [10] 101 % of control

O=C(C(=O)c1ccc(Cl)cc1)c1ccc(Cl)cc1
inactive: endpoint: mean survival time, dose: 6.25 mg/kg/injection, schedule: Q04DX003 (ip), vehicle: other 94 % of control | endpoint: mean survival time, dose: 12.5 mg/kg/injection, schedule: Q04DX003 (ip), vehicle: other 90 % of control | endpoint: mean survival time, dose: 25.0 mg/kg/injection, schedule: Q04DX003 (ip), vehicle: other 90 % of control

C1CCC(C2CCCC[N-]2)[N-]C1.O=C(O)C1CCC[N-]1.[Cl][Pt] (stereo not drawn)
inactive: endpoint: median survival time, dose: 10.0 mg/kg/injection, schedule: Q04DX003 (ip), vehicle: saline 103 % of control | endpoint: median survival time, dose: 20.0 mg/kg/injection, schedule: Q04DX003 (ip), vehicle: saline 101 % of control | endpoint: median survival time, dose: 40.0 mg/kg/injection, schedule: Q04DX003 (ip), vehicle: saline 98 % of control | endpoint: median survival time, dose: 80.0 mg/kg/injection, schedule: Q04DX003 (ip), vehicle: saline 98 % of control and 104 % of control | endpoint: median survival time, dose: 160.0 mg/kg/injection, schedule: Q04DX003 (ip), vehicle: saline 104 % of control

COC(=O)c1cccn1C(=O)c1cc(OC)c(OC)cc1[N+](=O)[O-]
inactive: [14] 96 % of control | [4] 92 % of control and 93 % of control | [5] 96 % of control | [6] 89 % of control
